In paper PMC10313368 (The Journal of Clinical Investigation, 2023):
Values joined by “and” are separate entries in the source; they are usually repeats but may differ in a detail not shown here. Equal values may be shown once.

Key:
[1] = test system: C57BL/6 mice; assay: Flash scotopic ERG after a single intraocular injection; type: in vivo, mouse; details: for A wave / B wave: in µV (unit assumed)
Procedure: Intraocular injections. Intravitreal injections were performed with a PLI-100A Pico-liter Microinjector (Warner Instruments, Harvard Bioscience) using pulled-glass micropipettes. Each micropipette was calibrated to deliver a 1 μl volume on depression of a foot switch. […]
Flash scotopic ERGs. All procedures were performed under dim red light. Mice were dark adapted overnight, anesthetized with ketamine (50 mg/kg) and xylazine (5mg/kg) and pupils were dilated with a topical drop of tropicamide (1%). Scotopic ERG responses were measured using the Celeris ERG stimulator (Diagnosys, Lowell, MA) at flash intensities of 0.025, 0.25, 2.5, 7.96, and 79.06 cd/s/m2. ERGs were measured simultaneously from both eyes with a ground electrode placed into the forehead between the eyes and a reference electrode into the hip. […]

[2] = test system: retinal ganglion cells (RGCs); assay: Retinal histology (H&E), RBPMS staining and quantitation of RGCs, ONL/INL thickness after intraocular injection; type: in vivo, mouse
[3] = test system: HIF-regulated angiogenic mediators; assay: mRNA expression of HIF-regulated vasoactive mediators in OIR mouse retina (qPCR); type: in vivo
Procedure: Reverse transcription and quantitative real-time PCR. Total RNA was isolated from cultured cells or retinas with PureLinkTM RNA Mini Kit (Invitrogen #12183025), and cDNA was prepared with MuLV Reverse Transcriptase (Applied Biosystems). Quantitative real-time PCR was performed with Power SYBR Green PCR Master Mix (Applied Biosystems) and MyiQ Real-Time PCR Detection System (Bio-Rad). Normalization was done using cyclophilin A for mouse tissue and human cell lines. Primers are listed in Supplemental Table 2. […]
Animal studies. Eight-week-old pathogen-free female C57BL/6 mice were obtained from The Jackson Laboratory (JAX). Timed pregnant C57BL/6 mice were obtained from Charles River Laboratories. Mice heterozygous for HIF-1α have been previously described (2). Mice heterozygous for HIF-2α (strain number: 003266; common name: EPAS1 KO) were purchased […]
OIR mouse model. OIR experiments were performed as previously described (1, 3). Briefly, C57BL/6 mice were placed in 75% O2 on P7. On P12, the mice were returned to room air and were […]
(or vehicle) by intravitreal injection. Mice with body weight less than 6 g at P17 were excluded […]
from analysis. Data were collected from both males and females and the results were combined since there was no apparent difference between sexes. Representative images for selected time points from a minimum of three independent experiments are shown. Data from 3-8 pups were obtained at each time point. […]
Intraperitoneal (IP) injections. […]
intraperitoneally using an insulin syringe in OIR pups. […]
the peritoneal cavity of neonatal C57BL/6 mice and STZ mice at indicated times, and the retinal vasculature and lysates for WB and qPCR were assessed at P17.
Intraocular injections. Intravitreal injections were performed with a PLI-100A Pico-liter Microinjector (Warner Instruments, Harvard Bioscience) using pulled-glass micropipettes. Each micropipette was calibrated to deliver a 1 μl volume on depression of a foot switch. The mice were anesthetized with a ketamine (100 mg/kg) and xylazine (5mg/kg) mixture, and under a dissecting microscope, the sharpened tip of the micropipette was passed through the sclera just posterior to the limbus into the vitreous cavity and the foot switch was depressed, which caused fluid to […]

[4] = OIR+32-134D i.p. 20mg/kg, Figure 10C, replicates, 20 mg/kg
[5] = OIR+32-134D i.p. 20mg/kg, Figure 10D, replicates, 20 mg/kg
[6] = S Figure 4B, OIR mice, 14ng I.V., replicates
[7] = S Figure 4B, OIR mice, 70ng I.V., replicates

For `Brc1ccc2c(-c3csc(-c4c[nH]c5c(Br)cccc45)n3)c[nH]c2c1` [32-134D, 4-(6-bromo-1H-indol-3-yl)-2-(7-bromo-1H-indol-3-yl)thiazole], the “retinal toxicity on ERG” value ([1]; 32-134D 70, 140, 210, 350 ng single intraocular injection, up to 5 weeks) was “did not observe any evidence of retina toxicity”, the A wave ([1]; DAY7, flash 0.25, 140NG) was 84.49 and 88.87 and the A wave ([1]; DAY7, flash 2.5, 140NG) was 138.4 and 109.3. The A wave ([1]; DAY7, flash 7.96, 140NG) was 181.6 and 123.7, the B wave ([1]; DAY7, flash 7.96, 140NG) was 337.9 and the B wave ([1]; DAY7, flash 79.06, 140NG) was 327.7. For the same compound, the B wave ([1]; DAY14, flash 0.025, 70NG) was 149.2 and 168.6 and 209.2 and 152.4 and 190.2 and 184.53 and 268.4, the B wave ([1]; DAY14, flash 0.025, 140NG) was 158.1 and the A wave ([1]; DAY14, flash 0.25, 70NG) was 69.71 and 75.03 and 99.56 and 75.32 and 55.14 and 80.45 and 95.29. For the same compound, the B wave ([1]; DAY14, flash 0.25, 70NG) was 204.5 and 293.7 and 273.9 and 206.4 and 256.8 and 214.7 and 313, the A wave ([1]; DAY14, flash 0.25, 140NG) was 76.62 and 123.2 and the B wave ([1]; DAY14, flash 0.25, 140NG) was 209.6. The A wave ([1]; DAY14, flash 2.5, 70NG) was 116.4 and 108.2 and 136.4 and 117.2 and 152.87 and 100.6 and 158.9, the B wave ([1]; DAY14, flash 2.5, 70NG) was 215 and 216 and 281.6 and 293.7 and 254.6 and 294.3 and 388.9 and the A wave ([1]; DAY14, flash 2.5, 140NG) was 128 and 175.3. For the same compound, the B wave ([1]; DAY14, flash 2.5, 140NG) was 257.2, the A wave ([1]; DAY14, flash 7.96, 70NG) was 135.7 and 102.5 and 159.1 and 157 and 172.6 and 118.4 and 175.8 and the B wave ([1]; DAY14, flash 7.96, 70NG) was 256.6 and 296.2 and 276.2 and 330.1 and 232.5 and 333.4 and 391. For the same compound, the A wave ([1]; DAY14, flash 7.96, 140NG) was 138.7 and 208.7, the B wave ([1]; DAY14, flash 7.96, 140NG) was 262.8 and the A wave ([1]; DAY14, flash 79.06, 70NG) was 161.6 and 123.9 and 177.3 and 180.4 and 182.2 and 135.3 and 174.3. The B wave ([1]; DAY14, flash 79.06, 70NG) was 232.9 and 293.2 and 237.9 and 340.7 and 256.5 and 324.6 and 372.7, the A wave ([1]; DAY14, flash 79.06, 140NG) was 168.4 and 191 and the B wave ([1]; DAY14, flash 79.06, 140NG) was 300.7. The B wave ([1]; DAY21, flash 0.025, 140NG) was 129.1, the A wave ([1]; DAY21, flash 0.25, 70NG) was 76.13 and 75.12 and 97.06 and 99.13 and 63.13 and 91.99 and 97.31 and the B wave ([1]; DAY21, flash 0.25, 70NG) was 236.1 and 170.7 and 170.8 and 248.9 and 189.8 and 286.3 and 297.9. For the same compound, the B wave ([1]; DAY21, flash 0.25, 140NG) was 175.7, the A wave ([1]; DAY21, flash 2.5, 70NG) was 112.6 and 110.6 and 152.6 and 169.8 and 108.4 and 159.7 and 165.1 and the B wave ([1]; DAY21, flash 2.5, 70NG) was 298.7 and 211.6 and 203 and 296 and 196.2 and 332.2 and 364.3. For the same compound, the A wave ([1]; DAY21, flash 7.96, 70NG) was 105.9 and 120.3 and 162.9 and 176.2 and 125.7 and 175.1 and 172, the B wave ([1]; DAY21, flash 7.96, 70NG) was 315.1 and 232.4 and 223 and 328.4 and 215.9 and 350.1 and 374.6 and the A wave ([1]; DAY21, flash 7.96, 140NG) was 126.8 and 195.8. The A wave ([1]; DAY21, flash 79.06, 70NG) was 108.1 and 130.3 and 166.3 and 180.2 and 139.8 and 172.8 and 188, the B wave ([1]; DAY21, flash 79.06, 70NG) was 286.8 and 226.3 and 206.8 and 273.5 and 273.2 and 297.6 and 298.6 and the A wave ([1]; DAY21, flash 79.06, 140NG) was 148.7 and 231. The A wave ([1]; DAY28, flash 2.5, 140NG) was 148.8 and 128.1, the A wave ([1]; DAY28, flash 7.96, 70NG) was 118.7 and 202.6 and 114.3 and 192.2 and 119.5 and 102.4 and 173.1 and the A wave ([1]; DAY28, flash 7.96, 140NG) was 168.7. The A wave ([1]; DAY28, flash 79.06, 70NG) was 125.3 and 187.6 and 118.9 and 161.8 and 121.28 and 110 and 160.6, the A wave ([1]; DAY28, flash 79.06, 140NG) was 153 and the A wave ([1]; DAY35, flash 2.5, 140NG) was 66. The A wave ([1]; DAY35, flash 79.06, 70NG) was 74.06 and 95.89 and 102 and 95.42 and 92.65 and 81.18 and 82.72, the B wave ([1]; DAY35, flash 79.06, 70NG) was 112.4 and 198.3 and 140.3 and 150.2 and 167.5 and 220.3 and 163 and the “retinal histology including GCL” value ([2]; 32-134D 210 or 350 ng intraocular, 35 days) was “normal histology”. The “number of RGCs on retinal flat mounts (in words)” value ([2]; 32-134D at the highest doses tested, 35 days) was “unaffected”, the “ONL or INL thickness versus vehicle (in words)” value ([2]; 32-134D single dose 350 ng, 5 weeks) was “failed to demonstrate any changes” and the “therapeutic window following intraocular administration” value ([2]; 32-134D, mice) was “wide therapeutic window”. For the same compound, the “mRNA expression of key HIF-regulated vasoactive mediators in OIR mice (in words)” value ([3]; 5 consecutive (P12–P16) i.p. injections 20 mg/kg 32-134D) was “marked reduction”, the “Vegfa mRNA” value ([3]; Figure 14B, OIR mice, 14ng I.V., individual replicates) was 2.554 and 2.472 and 2.429 and the “Vegfa mRNA” value ([3]; Figure 14B, OIR mice, 70ng I.V., individual replicates) was 1.453 and 1.941 and 2.696. The “other key HIF-regulated angiogenic genes including Kdr, Angptl4, Epo, Serpine1 (in words)” value ([3]; OIR mice P17, single intraocular 32-134D (70 ng, Supplemental Figure 4) at P12) was “moderate reduction”, the “Angptl4 mRNA” value [3, 4] was 1.959 and 1.886 and 1.828 and the “Epo mRNA” value [3, 4] was 15.9268 and 13.6786 and 15.0565. For the same compound, the “Pdgfb mRNA” value [3, 4] was 7.756 and 6.2199 and 6.871, the “Vegfa mRNA” value [3, 4] was 4.717 and 4.578 and 4.299 and the “Angpt2 mRNA” value [3, 5] was 1.455 and 1.394 and 1.541. The “Kdr mRNA” value [3, 5] was 1.28 and 1.296 and 1.315, the “Ptprb mRNA” value [3, 5] was 1.109 and 1.093 and 1.12 and the “Serpine1 mRNA” value [3, 5] was 18.6807 and 17.1616 and 18.3924. For the same compound, the “Angptl4 mRNA” value [3, 6] was 1.665 and 1.591 and 1.559, the “Epo mRNA” value [3, 6] was 8.623 and 9.0589 and 6.546 and the “Kdr mRNA” value [3, 6] was 1.18 and 1.183 and 1.04. For the same compound, the “Serpine1 mRNA” value [3, 6] was 4.654 and 4.995 and 4.51, the “Angptl4 mRNA” value [3, 7] was 1.678 and 1.5898 and 1.693 and the “Epo mRNA” value [3, 7] was 5.752 and 6.783 and 6.508. The “Kdr mRNA” value [3, 7] was 1.345 and 1.2643 and 1.301, the “Serpine1 mRNA” value [3, 7] was 6.417 and 6.411 and 5.108 and the “Vegfa mRNA expression in OIR mice (in words)” value ([3]; single intraocular injection 32-134D 14 ng at P12) was “moderate reduction”.
